# The source made the active and inactive calls.
# Columns and labels:
# Assay type in all cases: functional
# [1] = biological target: Serine/threonine-protein kinase pim-3 (Homo sapiens, UniProt Q86V86);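 further: value obtained as one member of a broad kinase panel profiling effort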
# [2] = biological target: Casein kinase II subunit alpha (Homo sapiens, UniProt P68400)
# [3] = biological target: Serine/threonine-protein kinase pim-1 (Homo sapiens, UniProt P11309)
# [4] = biological target: Serine/threonine-protein kinase BRSK1 (Homo sapiens, UniProt Q8TDC3);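 further: measured within a kinome-wide kinase panel, with the target listed as KIAA1811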
# [5] = biological target: Mitogen-activated protein kinase 13 (Homo sapiens, UniProt O15264)
# Activin receptor type-1 = Activin receptor type-1 (Homo sapiens, UniProt Q04771); assay: Navigating the Kinome. Panel member name: ACVR1
# [6] = biological target: Platelet-derived growth factor receptor alpha (Homo sapiens, UniProt P16234); assay: Navigating the Kinome. Panel member name: PDGFRA
# [7] = biological target: High affinity nerve growth factor receptor (Homo sapiens, UniProt P04629);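 further: NTRK1 tested as one member of a kinome-wide profiling panel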
# [8] = biological target: Tyrosine-protein kinase FRK (Homo sapiens, UniProt P42685);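 further: FRK tested as one member of a kinome panel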
# [9] = biological target: Leukocyte tyrosine kinase receptor (Homo sapiens, UniProt P29376); assay: Navigating the Kinome. Panel member name: LTK
# [10] = biological target: Tyrosine-protein kinase JAK2 (Homo sapiens, UniProt O60674);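 further: JAK2 tested as one member of a kinase panel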
# [11] = biological target: Dual specificity tyrosine-phosphorylation-regulated kinase 1B (Homo sapiens, UniProt Q9Y463); assay: Navigating the Kinome. Panel member name: DYRK1B
# [12] = biological target: Leucine-rich repeat serine/threonine-protein kinase 2 (Homo sapiens, UniProt Q5S007);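 further: value from a broad kinome-wide panel profiling study in which LRRK2 was one of the kinases tested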
# [13] = biological target: Cyclin-dependent kinase 19 (Homo sapiens, UniProt Q9BWU1); assay: Navigating the Kinome. Panel member name: CDC2L6
# [14] = biological target: ALK tyrosine kinase receptor (Homo sapiens, UniProt Q9UM73);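 further: ALK tested as one member of a kinase panel screen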
# Wee1-like protein kinase = Wee1-like protein kinase (Homo sapiens, UniProt P30291); assay: Navigating the Kinome. Panel member name: WEE1
# [15] = biological target: Tyrosine-protein kinase SYK (Homo sapiens, UniProt P43405)
# [16] = biological target: Mitogen-activated protein kinase kinase kinase kinase 4 (Homo sapiens, UniProt O95819)
# [17] = biological target: Serine/threonine-protein kinase D2 (Homo sapiens, UniProt Q9BZL6);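 further: measured against PRKD2 as one member of a kinome-wide kinase profiling panel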
# [18] = biological target: Serine/threonine-protein kinase D3 (Homo sapiens, UniProt O94806);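 further: determined within a kinase panel screen, with PRKCN as the panel member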
# [19] = biological target: Rho-associated protein kinase 1 (Homo sapiens, UniProt Q13464);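 further: measured within a broad kinome-wide panel profiling many kinases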
# Sequence of ALK tyrosine kinase receptor (Q9UM73 whole entry): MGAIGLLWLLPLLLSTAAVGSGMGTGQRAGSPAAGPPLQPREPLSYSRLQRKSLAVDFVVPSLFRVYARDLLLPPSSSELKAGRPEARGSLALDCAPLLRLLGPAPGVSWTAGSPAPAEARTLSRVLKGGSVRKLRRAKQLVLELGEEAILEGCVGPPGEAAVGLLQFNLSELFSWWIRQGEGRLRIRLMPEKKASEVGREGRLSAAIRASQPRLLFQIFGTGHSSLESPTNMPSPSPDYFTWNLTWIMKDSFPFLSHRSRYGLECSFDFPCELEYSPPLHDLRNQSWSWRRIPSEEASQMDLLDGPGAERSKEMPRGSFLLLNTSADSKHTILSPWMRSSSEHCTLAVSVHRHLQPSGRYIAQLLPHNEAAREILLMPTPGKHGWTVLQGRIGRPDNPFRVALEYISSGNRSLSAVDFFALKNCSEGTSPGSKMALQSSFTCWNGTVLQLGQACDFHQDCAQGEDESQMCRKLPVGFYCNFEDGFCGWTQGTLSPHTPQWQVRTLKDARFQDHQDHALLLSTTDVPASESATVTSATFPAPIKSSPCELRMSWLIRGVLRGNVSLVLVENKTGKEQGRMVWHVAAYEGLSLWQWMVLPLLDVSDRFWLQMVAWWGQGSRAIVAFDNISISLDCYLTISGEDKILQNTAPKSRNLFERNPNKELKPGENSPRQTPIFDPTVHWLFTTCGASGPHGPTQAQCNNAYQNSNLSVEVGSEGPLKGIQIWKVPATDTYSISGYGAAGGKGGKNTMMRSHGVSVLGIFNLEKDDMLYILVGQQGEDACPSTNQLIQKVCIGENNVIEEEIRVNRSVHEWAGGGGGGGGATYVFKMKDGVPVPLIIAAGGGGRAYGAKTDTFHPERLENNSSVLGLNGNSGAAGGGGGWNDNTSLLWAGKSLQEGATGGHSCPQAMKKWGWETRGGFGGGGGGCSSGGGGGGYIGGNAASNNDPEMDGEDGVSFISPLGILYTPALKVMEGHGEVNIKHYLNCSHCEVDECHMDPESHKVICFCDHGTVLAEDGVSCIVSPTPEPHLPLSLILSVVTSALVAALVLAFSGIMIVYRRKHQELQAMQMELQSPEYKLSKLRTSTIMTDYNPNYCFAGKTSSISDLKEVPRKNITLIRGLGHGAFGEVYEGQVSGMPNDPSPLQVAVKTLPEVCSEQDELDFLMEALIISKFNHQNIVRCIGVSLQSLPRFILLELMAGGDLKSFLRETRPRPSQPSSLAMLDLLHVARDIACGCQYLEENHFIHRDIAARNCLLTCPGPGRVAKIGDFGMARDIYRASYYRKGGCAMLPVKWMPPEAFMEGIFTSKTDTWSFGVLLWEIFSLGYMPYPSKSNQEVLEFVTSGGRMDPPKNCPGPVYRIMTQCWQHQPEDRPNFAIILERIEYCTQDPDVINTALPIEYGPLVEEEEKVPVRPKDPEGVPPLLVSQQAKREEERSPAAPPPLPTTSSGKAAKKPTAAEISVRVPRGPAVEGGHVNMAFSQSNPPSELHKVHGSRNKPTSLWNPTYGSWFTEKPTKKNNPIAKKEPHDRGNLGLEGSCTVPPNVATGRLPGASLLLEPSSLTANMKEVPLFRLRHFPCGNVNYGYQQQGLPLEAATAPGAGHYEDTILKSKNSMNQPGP
# Sequence of Tyrosine-protein kinase JAK2 (O60674 whole entry): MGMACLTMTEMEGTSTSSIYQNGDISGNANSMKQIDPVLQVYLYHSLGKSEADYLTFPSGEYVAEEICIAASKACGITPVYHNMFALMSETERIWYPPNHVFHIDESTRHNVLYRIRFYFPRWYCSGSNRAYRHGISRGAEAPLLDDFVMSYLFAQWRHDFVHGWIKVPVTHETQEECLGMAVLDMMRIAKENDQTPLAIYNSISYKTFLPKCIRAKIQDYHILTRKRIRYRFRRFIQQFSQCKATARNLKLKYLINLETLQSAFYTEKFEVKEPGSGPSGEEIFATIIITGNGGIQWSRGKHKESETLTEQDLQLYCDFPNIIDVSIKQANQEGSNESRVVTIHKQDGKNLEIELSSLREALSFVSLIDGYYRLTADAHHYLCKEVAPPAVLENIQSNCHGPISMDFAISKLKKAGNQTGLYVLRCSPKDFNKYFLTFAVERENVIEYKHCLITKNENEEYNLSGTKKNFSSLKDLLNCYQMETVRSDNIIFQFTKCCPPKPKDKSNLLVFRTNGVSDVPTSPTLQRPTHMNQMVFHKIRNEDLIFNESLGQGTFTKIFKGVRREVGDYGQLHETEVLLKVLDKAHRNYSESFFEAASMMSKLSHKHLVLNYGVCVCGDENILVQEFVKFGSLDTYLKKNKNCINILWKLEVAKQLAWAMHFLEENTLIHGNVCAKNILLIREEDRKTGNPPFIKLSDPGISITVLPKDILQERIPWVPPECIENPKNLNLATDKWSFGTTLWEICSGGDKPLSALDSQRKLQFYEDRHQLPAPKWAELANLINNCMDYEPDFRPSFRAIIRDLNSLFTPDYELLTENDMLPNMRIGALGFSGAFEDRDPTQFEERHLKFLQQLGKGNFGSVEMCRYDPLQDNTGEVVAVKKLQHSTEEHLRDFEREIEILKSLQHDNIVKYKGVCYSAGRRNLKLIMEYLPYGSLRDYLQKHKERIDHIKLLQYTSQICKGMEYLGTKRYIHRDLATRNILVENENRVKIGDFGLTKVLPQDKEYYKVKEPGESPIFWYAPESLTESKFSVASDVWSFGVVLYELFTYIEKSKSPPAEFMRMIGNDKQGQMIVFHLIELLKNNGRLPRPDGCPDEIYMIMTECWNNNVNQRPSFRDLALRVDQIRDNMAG
# Sequence of Mitogen-activated protein kinase kinase kinase kinase 4 (O95819 whole entry): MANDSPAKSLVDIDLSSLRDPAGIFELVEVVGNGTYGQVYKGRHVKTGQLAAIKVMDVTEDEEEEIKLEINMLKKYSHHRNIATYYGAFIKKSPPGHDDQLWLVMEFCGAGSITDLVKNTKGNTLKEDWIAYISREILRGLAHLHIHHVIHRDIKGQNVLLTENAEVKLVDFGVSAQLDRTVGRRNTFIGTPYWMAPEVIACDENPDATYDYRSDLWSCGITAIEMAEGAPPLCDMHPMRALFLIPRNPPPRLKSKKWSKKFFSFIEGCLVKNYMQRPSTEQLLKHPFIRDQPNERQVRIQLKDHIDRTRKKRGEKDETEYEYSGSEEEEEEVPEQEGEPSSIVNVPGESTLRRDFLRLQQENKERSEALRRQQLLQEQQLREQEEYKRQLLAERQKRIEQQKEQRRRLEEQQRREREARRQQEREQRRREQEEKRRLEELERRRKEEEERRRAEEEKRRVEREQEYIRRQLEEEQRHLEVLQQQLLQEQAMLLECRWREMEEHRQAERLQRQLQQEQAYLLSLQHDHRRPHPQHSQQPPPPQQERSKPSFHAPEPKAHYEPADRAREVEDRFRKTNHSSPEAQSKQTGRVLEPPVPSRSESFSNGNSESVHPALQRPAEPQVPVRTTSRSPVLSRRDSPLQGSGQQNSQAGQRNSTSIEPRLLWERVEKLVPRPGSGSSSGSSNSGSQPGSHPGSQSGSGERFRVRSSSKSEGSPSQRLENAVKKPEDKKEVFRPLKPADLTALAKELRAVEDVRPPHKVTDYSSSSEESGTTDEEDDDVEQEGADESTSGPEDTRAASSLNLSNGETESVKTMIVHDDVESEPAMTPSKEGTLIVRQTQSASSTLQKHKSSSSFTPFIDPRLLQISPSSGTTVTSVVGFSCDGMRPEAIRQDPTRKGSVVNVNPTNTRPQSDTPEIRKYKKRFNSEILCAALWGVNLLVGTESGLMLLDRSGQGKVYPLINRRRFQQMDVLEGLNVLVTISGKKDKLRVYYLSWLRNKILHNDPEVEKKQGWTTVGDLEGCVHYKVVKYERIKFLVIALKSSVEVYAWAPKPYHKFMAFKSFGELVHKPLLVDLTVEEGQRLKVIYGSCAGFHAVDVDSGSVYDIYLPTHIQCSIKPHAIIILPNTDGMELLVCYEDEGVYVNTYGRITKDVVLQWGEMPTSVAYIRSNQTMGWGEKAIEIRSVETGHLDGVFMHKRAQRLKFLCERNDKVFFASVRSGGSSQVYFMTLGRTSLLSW
# Sequence of Platelet-derived growth factor receptor alpha (P16234 whole entry): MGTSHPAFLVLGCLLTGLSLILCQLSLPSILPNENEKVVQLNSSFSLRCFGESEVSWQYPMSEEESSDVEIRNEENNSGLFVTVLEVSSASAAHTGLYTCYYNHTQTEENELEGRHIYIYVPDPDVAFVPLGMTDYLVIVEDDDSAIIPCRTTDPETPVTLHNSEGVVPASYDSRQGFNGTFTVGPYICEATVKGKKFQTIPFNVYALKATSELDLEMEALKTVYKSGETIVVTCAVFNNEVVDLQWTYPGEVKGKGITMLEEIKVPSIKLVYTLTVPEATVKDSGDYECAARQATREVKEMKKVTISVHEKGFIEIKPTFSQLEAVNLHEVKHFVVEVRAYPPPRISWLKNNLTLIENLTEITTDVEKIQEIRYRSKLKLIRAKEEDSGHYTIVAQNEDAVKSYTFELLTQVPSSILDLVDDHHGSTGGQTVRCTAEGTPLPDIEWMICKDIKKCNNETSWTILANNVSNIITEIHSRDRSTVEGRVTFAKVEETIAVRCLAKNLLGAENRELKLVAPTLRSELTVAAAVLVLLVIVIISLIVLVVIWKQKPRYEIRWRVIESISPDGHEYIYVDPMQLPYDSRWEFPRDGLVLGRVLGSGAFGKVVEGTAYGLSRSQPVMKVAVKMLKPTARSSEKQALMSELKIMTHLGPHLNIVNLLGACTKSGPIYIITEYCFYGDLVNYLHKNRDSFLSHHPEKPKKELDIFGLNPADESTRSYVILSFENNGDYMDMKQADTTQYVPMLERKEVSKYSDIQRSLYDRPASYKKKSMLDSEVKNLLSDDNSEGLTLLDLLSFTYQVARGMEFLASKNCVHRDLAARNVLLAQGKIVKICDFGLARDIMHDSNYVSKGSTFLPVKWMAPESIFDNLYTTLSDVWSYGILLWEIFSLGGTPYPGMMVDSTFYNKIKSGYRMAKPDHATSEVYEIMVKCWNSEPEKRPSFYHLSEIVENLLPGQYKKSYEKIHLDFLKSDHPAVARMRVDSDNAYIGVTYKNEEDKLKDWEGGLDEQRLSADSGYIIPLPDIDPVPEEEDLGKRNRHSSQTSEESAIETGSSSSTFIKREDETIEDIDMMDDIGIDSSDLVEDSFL
compound,measurement,setting,value
O=C1ON=C(c2ccc(Br)cc2)C1=Cc1ccc2c(c1)OCO2,Ki,[1],7940 nM (active)
same,Ki,[2],1580 nM (active)
same,Ki,[3],2000 nM (active)
same,Ki,[4],10000 nM (active)
COc1cccc(C(C)NC(=O)c2ccc(-c3ccncc3)cc2)c1 (stereo not drawn),Ki,[5],> 7940 nM (inactive)
same,Ki,Activin receptor type-1,> 3980 nM (inactive)
same,Ki,[6],> 2510 nM (inactive)
same,Ki,[7],> 2510 nM (inactive)
same,Ki,[8],> 2510 nM (inactive)
same,Ki,[9],> 2510 nM (inactive)
same,Ki,[10],> 2510 nM (inactive)
same,Ki,[11],> 2510 nM (inactive)
same,Ki,[12],> 2510 nM (inactive)
Cc1ccc(NC(=O)Nc2ccc(-c3csc4c(-c5cnn(CC(=O)N(C)C)c5)cnc(N)c34)cc2)cc1,Ki,[13],> 100000 nM (inactive)
same,Ki,[14],158 nM (active)
Cc1cnc(Nc2ccc(N3CCN(C)CC3)cc2)nc1Nc1cccc(S(=O)(=O)NC(C)(C)C)c1,Ki,[14],501 nM (active)
same,Ki,Wee1-like protein kinase,126 nM (active)
CCN(CC)CCOc1ccc(Nc2ncc3cc(-c4c(Cl)cccc4Cl)c(=O)n(C)c3n2)cc1 [PD-0166285],Ki,[15],79.4 nM (active)
same,Ki,[10],39.8 nM (active)
same,Ki,[16],79.4 nM (active)
NC(=O)c1ccc(N(C(N)=O)c2c(F)cccc2F)nc1-c1ccc(F)cc1F [VX-702],Ki,[17],5010 nM (active)
same,Ki,[18],2510 nM (active)
same,Ki,[19],2510 nM (active)
